Measured values reported in US20120220562A1, “Anti-Viral Compounds” (ABBOTT LABAORATORIES, priority 2011, published 2012).

These compounds were tested on HCV 1b-Con1 replicon (assay: HCV 1b-Con1 replicon assay in the presence of 5% FBS). Settings: Hepatitis C virus.
Assay type: cell-based

Structure (SMILES)	EC50 [nM]
COC(=O)N[C@H](C(=O)N1CCC[C@H]1c1nc2cc([C@H]3CC[C@H](c4ccc5[nH]c([C@@H]6CCCN6C(=O)[C@@H](NC(=O)OC)C(C)C)nc5c4)N3c3cc(F)c(N4C[C@H]5CCCC[C@H]5C4)c(F)c3)ccc2[nH]1)C(C)C [Example 4.3, methyl {(2S)-1-[(2S)-2-{5-[(2R,5R)-1-{3,5-difluoro-4-[(3aR,7aS)-octahydro-2H-isoindol-2-yl]phenyl}-5-{2-[(2S)-1-{(2S)-2-[(methoxycarbonyl)amino]-3-methylbutanoyl}pyrrolidin-2-yl]-1H-benzimidazol-5-yl}pyrrolidin-2-yl]-1H-benzimidazol-2-yl}pyrrolidin-1-yl]-3-methyl-1-oxobutan-2-yl}carbamate]	< 0.1
COC(=O)N[C@H](C(=O)N1CCC[C@H]1c1nc2cc([C@H]3CC[C@H](c4ccc5[nH]c([C@@H]6CCCN6C(=O)[C@@H](NC(=O)OC)C(C)C)nc5c4)N3c3cc(Cl)c(N4CCCCC4)c(Cl)c3)ccc2[nH]1)C(C)C [Example 4.4, methyl {(2S)-1-[(2S)-2-{5-[(2R,5R)-1-[3,5-dichloro-4-(piperidin-1-yl)phenyl]-5-{2-[(2S)-1-{(2S)-2-[(methoxycarbonyl)amino]-3-methylbutanoyl}pyrrolidin-2-yl]-1H-benzimidazol-5-yl}pyrrolidin-2-yl]-1H-benzimidazol-2-yl}pyrrolidin-1-yl]-3-methyl-1-oxobutan-2-yl}carbamate]	< 0.1
COC(=O)N[C@H](C(=O)N1CCC[C@H]1c1nc2cc([C@H]3CC[C@H](c4ccc5[nH]c([C@@H]6CCCN6C(=O)[C@@H](NC(=O)OC)C(C)C)nc5c4)N3c3cc(F)c(N4CCCCC4)cc3F)ccc2[nH]1)C(C)C [Example 4.5, methyl {(2S)-1-[(2S)-2-{5-[(2R,5R)-1-[2,5-difluoro-4-(piperidin-1-yl)phenyl]-5-{2-[(2S)-1-{(2S)-2-[(methoxycarbonyl)amino]-3-methylbutanoyl}pyrrolidin-2-yl]-1H-benzimidazol-5-yl}pyrrolidin-2-yl]-1H-benzimidazol-2-yl}pyrrolidin-1-yl]-3-methyl-1-oxobutan-2-yl}carbamate]	< 0.1
COC(=O)N[C@H](C(=O)N1CCC[C@H]1c1nc2cc([C@H]3CC[C@H](c4ccc5[nH]c([C@@H]6CCCN6C(=O)[C@@H](NC(=O)OC)C(C)C)nc5c4)N3c3cc(F)c(N4[C@H](C)CCC[C@@H]4C)c(F)c3)ccc2[nH]1)C(C)C [Example 4.6, methyl {(2S)-1-[(2S)-2-{5-[(2R,5R)-1-{4-[(2R,6S)-2,6-dimethylpiperidin-1-yl]-3,5-difluorophenyl}-5-{2-[(2S)-1-{(2S)-2-[(methoxycarbonyl)amino]-3-methylbutanoyl}pyrrolidin-2-yl]-1H-benzimidazol-5-yl}pyrrolidin-2-yl]-1H-benzimidazol-2-yl}pyrrolidin-1-yl]-3-methyl-1-oxobutan-2-yl}carbamate]	< 0.1
COC(=O)N[C@H](C(=O)N1CCC[C@H]1c1nc2cc([C@H]3CC[C@H](c4ccc5[nH]c([C@@H]6CCCN6C(=O)[C@@H](NC(=O)OC)C(C)C)nc5c4)N3c3cc(F)c(N4CCCCC4)c(F)c3F)ccc2[nH]1)C(C)C [Example 4.7, methyl {(2S)-1-[(2S)-2-(5-{(2R,5R)-5-{2-[(2S)-1-{(2S)-2-[(methoxycarbonyl)amino]-3-methylbutanoyl}pyrrolidin-2-yl]-1H-benzimidazol-5-yl}-1-[2,3,5-trifluoro-4-(piperidin-1-yl)phenyl]pyrrolidin-2-yl}-1H-benzimidazol-2-yl)pyrrolidin-1-yl]-3-methyl-1-oxobutan-2-yl}carbamate]	< 0.1
COC(=O)N[C@H](C(=O)N1CCC[C@H]1c1nc2cc([C@H]3CC[C@H](c4ccc5nc([C@@H]6CCCN6C(=O)[C@@H](NC(=O)OC)C(C)C)[nH]c5c4)N3c3ccc(C4CCCCC4)c(F)c3)ccc2[nH]1)C(C)C [Example 4.8, methyl {(2S)-1-[(2S)-2-{5-[(2R,5R)-1-(4-cyclohexyl-3-fluorophenyl)-5-{2-[(2S)-1-{(2S)-2-[(methoxycarbonyl)amino]-3-methylbutanoyl}pyrrolidin-2-yl]-1H-benzimidazol-6-yl}pyrrolidin-2-yl]-1H-benzimidazol-2-yl}pyrrolidin-1-yl]-3-methyl-1-oxobutan-2-yl}carbamate]	< 0.1
COC(=O)N[C@H](C(=O)N1CCC[C@H]1c1nc2cc([C@H]3CC[C@H](c4ccc5nc([C@@H]6CCCN6C(=O)[C@@H](NC(=O)OC)C(C)C)[nH]c5c4)N3c3ccc(F)c(F)c3)ccc2[nH]1)C(C)C [Example 4.9, methyl {(2S)-1-[(2S)-2-{5-[(2R,5R)-1-(3,4-difluorophenyl)-5-{2-[(2S)-1-{(2S)-2-[(methoxycarbonyl)amino]-3-methylbutanoyl}pyrrolidin-2-yl]-1H-benzimidazol-6-yl}pyrrolidin-2-yl]-1H-benzimidazol-2-yl}pyrrolidin-1-yl]-3-methyl-1-oxobutan-2-yl}carbamate]	< 0.1
CCOc1ccc(N2[C@@H](c3ccc4nc([C@@H]5CCCN5C(=O)[C@@H](NC(=O)OC)C(C)C)[nH]c4c3)CC[C@@H]2c2ccc3nc([C@@H]4CCCN4C(=O)[C@@H](NC(=O)OC)C(C)C)[nH]c3c2)cc1 [Example 4.10, methyl {(2S)-1-[(2S)-2-{6-[(2R,5R)-1-(4-ethoxyphenyl)-5-{2-[(2S)-1-{(2S)-2-[(methoxycarbonyl)amino]-3-methylbutanoyl}pyrrolidin-2-yl]-1H-benzimidazol-6-yl}pyrrolidin-2-yl]-1H-benzimidazol-2-yl}pyrrolidin-1-yl]-3-methyl-1-oxobutan-2-yl}carbamate]	< 0.1
COC(=O)N[C@H](C(=O)N1CCC[C@H]1c1nc2ccc([C@H]3CC[C@H](c4ccc5nc([C@@H]6CCCN6C(=O)[C@@H](NC(=O)OC)C(C)C)[nH]c5c4)N3c3ccc(OCC(F)F)cc3)cc2[nH]1)C(C)C [Example 4.11, methyl {(2S)-1-[(2S)-2-{6-[(2R,5R)-1-[4-(2,2-difluoroethoxy)phenyl]-5-{2-[(2S)-1-{(2S)-2-[(methoxycarbonyl)amino]-3-methylbutanoyl}pyrrolidin-2-yl]-1H-benzimidazol-6-yl}pyrrolidin-2-yl]-1H-benzimidazol-2-yl}pyrrolidin-1-yl]-3-methyl-1-oxobutan-2-yl}carbamate]	< 0.1
COC(=O)N[C@H](C(=O)N1CCC[C@H]1c1nc2ccc([C@H]3CC[C@H](c4ccc5nc([C@@H]6CCCN6C(=O)[C@@H](NC(=O)OC)C(C)C)[nH]c5c4)N3c3ccc(S(F)(F)(F)(F)F)cc3)cc2[nH]1)C(C)C [Example 4.13, methyl {(2S)-1-[(2S)-2-(6-{(2R,5R)-5-{2-[(2S)-1-{(2S)-2-[(methoxycarbonyl)amino]-3-methylbutanoyl}pyrrolidin-2-yl]-1H-benzimidazol-6-yl}-1-[4-(pentafluoro-lambda˜6˜-sulfanyl)phenyl]pyrrolidin-2-yl}-1H-benzimidazol-2-yl)pyrrolidin-1-yl]-3-methyl-1-oxobutan-2-yl}carbamate]	< 0.1
COC(=O)N[C@H](C(=O)N1CCC[C@H]1c1nc2cc([C@@H]3CC[C@@H](c4ccc5[nH]c([C@@H]6CCCN6C(=O)[C@@H](NC(=O)OC)[C@@H](C)OC)nc5c4)N3c3ccc(C4CC4)cc3)ccc2[nH]1)[C@@H](C)OC [Example 4.14, methyl {(2S,3R)-1-[(2S)-2-{5-[(2S,55)-1-(4-cyclopropylphenyl)-5-(2-{(2S)-1-[N-(methoxycarbonyl)-O-methyl-L-threonyl]pyrrolidin-2-yl}-1H-benzimidazol-5-yl)pyrrolidin-2-yl]-1H-benzimidazol-2-yl}pyrrolidin-1-yl]-3-methoxy-1-oxobutan-2-yl}carbamate]	< 0.1
COC(=O)N[C@H](C(=O)N1CCC[C@H]1c1nc2ccc([C@H]3CC[C@H](c4ccc5nc([C@@H]6CCCN6C(=O)[C@@H](NC(=O)OC)C(C)C)[nH]c5c4)N3c3cc(F)c(C4CC4)c(F)c3)cc2[nH]1)C(C)C [Example 4.15, methyl {(2S)-1-[(2S)-2-{6-[(2R,5R)-1-(4-cyclopropyl-3,5-difluorophenyl)-5-{2-[(2S)-1-{(2S)-2-[(methoxycarbonyl)amino]-3-methylbutanoyl}pyrrolidin-2-yl]-1H-benzimidazol-6-yl}pyrrolidin-2-yl]-1H-benzimidazol-2-yl}pyrrolidin-1-yl]-3-methyl-1-oxobutan-2-yl}carbamate]	< 0.1
COC(=O)N[C@H](C(=O)N1CCC[C@H]1c1nc2ccc([C@H]3CC[C@H](c4ccc5nc([C@@H]6CCCN6C(=O)[C@@H](NC(=O)OC)C6CC6)[nH]c5c4)N3c3ccc(C(C)(C)C)cc3)cc2[nH]1)C1CC1 [Example 4.16, dimethyl ([(2R,5R)-1-(4-tert-butylphenyl)pyrrolidine-2,5-diyl]bis{1H-benzimidazole-6,2-diyl(2S)pyrrolidine-2,1-diyl [(1S)-1-cyclopropyl-2-oxoethane-2,1-diyl]}) biscarbamate]	< 0.1
COC(=O)N[C@H](C(=O)N1CCC[C@H]1c1nc2cc([C@H]3CC[C@H](c4ccc5[nH]c([C@@H]6CCCN6C(=O)[C@@H](NC(=O)OC)C(C)C)nc5c4)N3c3cc(F)c(N4CCC(C(C)=O)(c5ccccc5)CC4)c(F)c3)ccc2[nH]1)C(C)C [Example 4.17, methyl {(2S)-1-[(2S)-2-{5-[(2R,5R)-1-[4-(4-acetyl-4-phenylpiperidin-1-yl)-3,5-difluorophenyl]-5-{2-[(2S)-1-{(2S)-2-[(methoxycarbonyl)amino]-3-methylbutanoyl}pyrrolidin-2-yl]-1H-benzimidazol-5-yl}pyrrolidin-2-yl]-1H-benzimidazol-2-yl}pyrrolidin-1-yl]-3-methyl-1-oxobutan-2-yl}carbamate]	< 0.1
COC(=O)N[C@H](C(=O)N1C(c2nc3cc([C@H]4CC[C@H](c5ccc6[nH]c([C@@H]7C[C@@H]8CCC[C@@H]8N7C(=O)[C@@H](NC(=O)OC)C(C)C)nc6c5)N4c4cc(F)c(N5CCCCC5)c(F)c4)ccc3[nH]2)C[C@@H]2CCC[C@@H]21)C(C)C (stereo partly drawn) [Example 4.18, methyl {(2S)-1-[(2S,3aS,6aS)-2-{5-[(2R,5R)-1-[3,5-difluoro-4-(piperidin-1-yl)phenyl]-5-{2-[(3aS,6aS)-1-{(2S)-2-[(methoxycarbonyl)amino]-3-methylbutanoyl}octahydrocyclopenta[b]pyrrol-2-yl]-1H-benzimidazol-5-yl}pyrrolidin-2-yl]-1H-benzimidazol-2-yl}hexahydrocyclopenta[b]pyrrol-1(2H)-yl]-3-methyl-1-oxobutan-2-yl}carbamate]	< 0.1
